Broadly, the kinetic solubility is solubility judged after dilution from a stock solution rather than from solid.

≈ marks a conversion by molar mass, not a printed value.

The conditions of this data set: buffer; pH 7.4; 200.0 µM.
As for `CCCC1Cc2nc(Cl)c(C#N)cc2CO1` (stereo not drawn), the kinetic solubility is > 35.5 µg/mL.
As to `CC(CO)NCC12CC3CC(CC(C3)C1)C2.Cl` (stereo not drawn), the kinetic solubility is > 39 µg/mL.
Under `O=[N+]([O-])c1cc(S(=O)(=O)NCCN2CCOCC2)ccc1Cl` stands > 52.5 µg/mL; under `CC(=O)Cn1cnc2scc(-c3ccc(C)c(C)c3)c2c1=O`, 43.7 µg/mL (≈ 140 µM).
`O=C(O)C1Cc2ccccc2CN1C(=O)c1ccco1` (stereo not drawn) came in with a solubility (kinetic) of 30.7 µg/mL (≈ 113 µM).
Under `COCCCN1CN(Cc2ccco2)CNC1=S` stands > 40.4 µg/mL; under `CCc1ccc(N2CC(C)Cn3c2nc2c3c(=O)[nH]c(=O)n2C)cc1` (stereo not drawn), 7.3 µg/mL (≈ 21.5 µM); under `COc1ccccc1C(=O)N/C(=C\c1ccccc1)C(=O)NCc1ccco1`, > 56.5 µg/mL.
For `COc1cccc(CNC(=O)CCCc2cn(C)c3ccccc23)c1` the value was 6.1 µg/mL (≈ 18.1 µM); for `Nc1ncnc(Sc2ncccn2)c1[N+](=O)[O-]`, > 37.5 µg/mL; for `CC1(C)Cc2cccc(C(=O)NCc3ccco3)c2O1`, 32.9 µg/mL (≈ 121 µM).
For `CN(C)S(=O)(=O)c1cc(NC(=O)COC(=O)c2nc(Cl)ccc2Cl)ccc1Cl` the value was 52.7 µg/mL (≈ 113 µM).
For `Cn1c(N)c(N2CCCCC2)c(=O)n(CC(=O)Nc2cccc(C#N)c2)c1=O`, the solubility (kinetic) is > 57.4 µg/mL.
Under `CSCCC(NC(=O)/C(=C/c1ccco1)NC(=O)c1ccco1)C(=O)O` (stereo not drawn) stands > 56.8 µg/mL.
Regarding `O=C(NC1CC1)C1CCN(c2nc3ccccc3s2)CC1`, the solubility (kinetic) was > 45.2 µg/mL.
Under `O=C(O)C1C2C=CC(C2)C1C(=O)Nc1ccccc1Br` (stereo not drawn) stands > 50.4 µg/mL; under `CCC(=O)N(Cc1cc(=O)[nH]c2ccccc12)c1ccc(C)cc1`, > 48.1 µg/mL.
Turning to `Cc1ccc(NC(=O)CCN2CCN(C)CC2)cc1.Cl`, the kinetic solubility turned out to be 36.9 µg/mL.
Under `Cc1cccc(C(=O)OCC(=O)Nc2ccc3c(c2)OCCO3)c1` stands 8.2 µg/mL (≈ 25.1 µM); under `CC(=O)c1ccc(O)c(CSc2nncn2C)c1`, > 39.5 µg/mL; under `CC(=O)Nc1ccc(C(=O)NCC(c2ccco2)N(C)C)cc1` (stereo not drawn), 44.7 µg/mL (≈ 142 µM).
For `Cc1ccsc1C(=O)C1CCCN(Cc2cnc(N)nc2)C1` (stereo not drawn) the value was 37.8 µg/mL (≈ 119 µM); for `Cc1ccc(N2CN(CCc3ccccc3)CNC2=S)cc1`, 6.5 µg/mL (≈ 20.9 µM); for `O=C(COC(=O)C1CC1)NC(=O)c1ccccc1`, > 37.1 µg/mL.
Under `CCN1CCN(c2nc(-c3ccccc3)c3ccccc3n2)CC1` stands 46.1 µg/mL (≈ 145 µM); under `Cc1ccc(/C=C(\C#N)C(=O)NC(C)c2ccccc2)o1` (stereo not drawn), 8.6 µg/mL (≈ 30.7 µM); under `CC(C)CC(=O)c1c[nH]c(C(=O)NCc2cccnc2)c1`, 30.9 µg/mL (≈ 108 µM).
For the molecule `Cn1c(=O)n(CCO)c(=O)c2c1nc(Br)n2Cc1ccccc1`, the kinetic solubility is > 56.9 µg/mL.
Consider `CCOc1ncccc1C(=O)OC(C)C(=O)NC1CCCCC1` (stereo not drawn), for which the kinetic solubility is > 48.1 µg/mL.
For the molecule `CCCC(=O)Oc1cccc(C2NC(=O)c3ccccc3O2)c1` (stereo not drawn), the solubility (kinetic) worked out at 18.8 µg/mL (≈ 60.4 µM).
Under `CCCC1C2C(=O)N(c3cccc(C)c3)C(=O)C2ON1c1ccccc1` (stereo not drawn) stands 51.1 µg/mL (≈ 146 µM); under `O=C(CCNC(=O)c1ccccc1)OCC(=O)c1ccccc1`, > 46.7 µg/mL; under `O=c1c(Cc2ccccc2)c(O)ccn1Cc1ccco1`, 25.9 µg/mL (≈ 92.1 µM).
Under `CCCCC(=O)Nc1ccccc1CC` stands > 30.8 µg/mL; under `Cl.c1cncc(CNCc2ccco2)c1`, > 33.7 µg/mL.
Under `CC1CCC(N(CCCN)Cc2ccco2)CC1C` (stereo not drawn) stands 31.6 µg/mL (≈ 120 µM).
For the molecule `COC(=O)c1c(O)cc(=O)n2c1CCCCC2`, the kinetic solubility worked out at 33.3 µg/mL (≈ 140 µM).
On to `CC1CCC(NC(=O)CCN2C(=O)C3CC=CCC3C2=O)CC1` (stereo not drawn), for which the kinetic solubility was > 47.8 µg/mL.
In turn, `Cc1cc(OC2CCCCC2)nc(NCc2ccccc2)n1` had a kinetic solubility of 0.3 µg/mL (≈ 1.01 µM).
Under `CCc1nc2sc(C(C)=O)c(N)c2c2c1CCCC2` stands 1.1 µg/mL (≈ 4.01 µM); under `O=C(O)c1ccc(CNC(=O)c2ccc3c(c2)C(=O)N(Cc2cccnc2)C3=O)cc1`, > 62.3 µg/mL; under `Cc1ccc(C(=O)NCCCNC(=O)c2ccco2)cc1C`, 43.4 µg/mL (≈ 144 µM).
For `CC(C)NC(=O)c1ccccc1NC(=O)C1CC(=O)N(C(C)C)C1` (stereo not drawn) the value was > 49.7 µg/mL; for `Cc1cc(C)cc(Nc2nc3ccccc3c(=O)[nH]2)c1`, 0.2 µg/mL (≈ 0.754 µM); for `CC(C)C(=O)Nc1nc2cc3c(cc2s1)OCCO3`, 37.4 µg/mL (≈ 134 µM).
For `Cc1cc(C)c2nc(NC(=O)c3ccco3)sc2c1` the value was 0.4 µg/mL (≈ 1.47 µM); for `Cc1ccc(NC(=O)Cn2c(=O)oc3ccccc32)cc1`, 7.2 µg/mL (≈ 25.5 µM); for `O=C(Cc1ccc(Br)cc1)OCC(=O)c1ccc[nH]1`, 10.3 µg/mL (≈ 32 µM).
Turning to `Cc1ccc(-c2nc3ccccc3nc2Cl)cc1`, the kinetic solubility is < 0.3 µg/mL.
For `CCOC(=O)CNC(=O)C12CC3CC(CC(C3)C1)C2` the value was 37.8 µg/mL (≈ 142 µM); for `COc1ccc(C)cc1N(CC(=O)N1CCCCCC1)S(C)(=O)=O`, 38.1 µg/mL (≈ 107 µM); for `CC1C(=O)Nc2ccccc2N1C(=O)c1ccc(F)cc1` (stereo not drawn), > 42.6 µg/mL.
Under `COCCNC(=O)C(NC(=O)C1CCC(C)CC1)C(C)C` (stereo not drawn) stands > 44.8 µg/mL.

The values are drawn from PubChem BioAssay AID1996.
